In ChEMBL document CHEMBL1201862, “PubChem BioAssay data set” (2004):
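Grown in 96-well plates, cells were treated for 48 hours with each compound at five concentrations. Insufficient inhibition: endpoint recorded as highest concentration tested. The concentration for 50% growth inhibition is given as GI50.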 Activity calls are given as the source filed them. Rule as the data show it: active = GI50 up to about 1.1 µM and inactive = higher.

What was measured:
Assay in all cases: inhibition of tumour cell growth, NCI panel, 48 h
[1] = test system: HOP-62
[2] = test system: SF-539
[3] = test system: SK-MEL-28
[4] = test system: NCI/ADR-RES
[5] = test system: HCT-15
[6] = test system: SF-268
[7] = test system: UACC-257
[8] = test system: OVCAR-5
[9] = test system: HCT-116
[10] = test system: M14
[11] = test system: MDA-MB-231
[12] = test system: COLO 205
[13] = test system: UACC-62
[14] = test system: UO-31
[15] = test system: SW-620
[16] = test system: NCI-H226
[17] = test system: EKVX
[18] = test system: HT-29
[19] = test system: OVCAR-8
[20] = test system: RPMI-8226

SMILES | GI50 [1] | GI50 [2] | GI50 [3] | GI50 [4] | GI50 [5] | GI50 [6] | GI50 [7] | GI50 [8] | GI50 [9] | GI50 [10] | GI50 [11] | GI50 [12] | GI50 [13] | GI50 [14] | GI50 [15] | GI50 [16] | GI50 [17] | GI50 [18] | GI50 [19] | GI50 [20]
O=C(Cc1ccccc1)NN1C(=O)/C(=C\c2cccc(O)c2)S/C1=N\c1ccccc1 | > 100 µM (inactive) | > 100 µM (inactive) | > 100 µM (inactive) | > 100 µM (inactive) | > 100 µM | > 100 µM (inactive) | > 100 µM (inactive) | > 100 µM (inactive) | > 100 µM (inactive) | > 100 µM (inactive) | 45.8 µM (inactive) | > 100 µM (inactive) | > 100 µM (inactive) | 55.8 µM (inactive) | > 100 µM (inactive) | > 100 µM (inactive) | > 100 µM (inactive) | > 100 µM (inactive) | > 100 µM (inactive) | 
NC12CC3CC4C1CC1CC2C(C3)C4(N)C1 | > 100 µM (inactive) |  | > 100 µM (inactive) | > 100 µM (inactive) | > 100 µM | > 100 µM (inactive) | > 100 µM (inactive) | > 100 µM (inactive) | > 100 µM (inactive) | > 100 µM (inactive) | > 100 µM (inactive) | > 100 µM (inactive) | > 100 µM (inactive) | > 100 µM (inactive) | > 100 µM (inactive) | > 100 µM (inactive) | > 100 µM (inactive) | > 100 µM (inactive) | > 100 µM (inactive) | 
Sc1nnc(CNc2ccc(-c3nnc(S)n3-c3ccc(Cl)cc3)cc2)n1-c1ccc(Cl)cc1 | 18.5 µM (inactive) |  | 25.8 µM (inactive) | > 100 µM (inactive) | 48 µM | 30.3 µM (inactive) | 41.2 µM (inactive) | 18.1 µM (inactive) | 15.2 µM (inactive) | 25.2 µM (inactive) | 20.2 µM (inactive) | 22.4 µM (inactive) | 25.2 µM (inactive) | 16.4 µM (inactive) | 35.3 µM (inactive) | 40.7 µM (inactive) | 45.3 µM (inactive) | 25.3 µM (inactive) |  | 16.7 µM (inactive)
NC(=O)/C=c1/c2ccccc2n2nc3ccccc3c12 | 26.1 µM (inactive) | 13.3 µM (inactive) | 16.8 µM (inactive) | 16.1 µM (inactive) | 12.2 µM | 10.2 µM (inactive) | 20.3 µM (inactive) | 29.9 µM (inactive) | 4.82 µM (inactive) | 27.5 µM (inactive) | 2.76 µM (inactive) | 20.4 µM (inactive) | 19.4 µM (inactive) | 19.2 µM (inactive) | 17.5 µM (inactive) |  | 14.4 µM (inactive) | 15.9 µM (inactive) | 8.71 µM (inactive) | 4.98 µM (inactive)
O=c1oc2c(Cl)cc(Cl)cc2cc1-c1cn2c(n1)sc1ccccc12 | 53.5 µM (inactive) | > 100 µM (inactive) | > 100 µM (inactive) | > 100 µM (inactive) | 28.6 µM | 65.8 µM (inactive) | > 100 µM (inactive) | > 100 µM (inactive) | 27.9 µM (inactive) | 78.7 µM (inactive) | 28.4 µM (inactive) | 90.4 µM (inactive) | 35.9 µM (inactive) | 36.1 µM (inactive) | 31.9 µM (inactive) |  | 65.8 µM (inactive) | 71.1 µM (inactive) | 87.1 µM (inactive) | 24.7 µM (inactive)
C/C1=C\CC[C@@]2(C)O[C@@H]2C[C@@H]2[C@H](C/C(C)=C/CC1)OC(=O)[C@]21CO1 | > 100 µM (inactive) |  | > 100 µM (inactive) | > 100 µM (inactive) | > 100 µM | > 100 µM (inactive) | > 100 µM (inactive) | > 100 µM (inactive) | 41.5 µM (inactive) | > 100 µM (inactive) | > 100 µM (inactive) | > 100 µM (inactive) | 75.5 µM (inactive) | > 100 µM (inactive) | 68.7 µM (inactive) | > 100 µM (inactive) | > 100 µM (inactive) | 69.3 µM (inactive) | > 100 µM (inactive) | 51.5 µM (inactive)
COc1ccc(NC=O)c(C(O)CCNC(C)=O)c1 (stereo not drawn) |  | > 100 µM (inactive) |  | > 100 µM (inactive) | > 100 µM | > 100 µM (inactive) | > 100 µM (inactive) | > 100 µM (inactive) | > 100 µM (inactive) | > 100 µM (inactive) | > 100 µM (inactive) | > 100 µM (inactive) | > 100 µM (inactive) | > 100 µM (inactive) | > 100 µM (inactive) | > 100 µM (inactive) | > 100 µM (inactive) | > 100 µM (inactive) | > 100 µM (inactive) | > 100 µM (inactive)
CCCCCCCCCCCCCCCC1(OC)C[N+](C)(C)CCO1 (stereo not drawn) | 1.61 µM (inactive) | 1.74 µM (inactive) | 2.37 µM (inactive) | 17.9 µM (inactive) | 6.01 µM | 2.08 µM (inactive) | 2.08 µM (inactive) | 2.23 µM (inactive) | 1.63 µM (inactive) | 1.65 µM (inactive) | 1.75 µM (inactive) | 1.31 µM (inactive) | 2.76 µM (inactive) |  | 3.21 µM (inactive) | 1.08 µM (active) | 2.31 µM (inactive) | 1.22 µM (inactive) | 1.83 µM (inactive) | 
